The record followed here is ChEMBL document CHEMBL6071129, “Strategies that regulate Hippo signaling pathway for novel anticancer therapeutics” (Eur J Med Chem, 2024).

Experiment [1] in a line: Inhibition of YAP (unknown origin)/TAZ-TEAD interaction (unknown origin). Also noted: species or system Homo sapiens.
Experiment [2] concerns MCF-10A. Description: Growth inhibition of human MCF-10A cells incubated for 48 hrs. Format: functional.
The subject of experiment [3] is HCT-116. Description: Antiproliferative activity against human HCT-116 cells incubated for 48 hrs by MTT assay. Format: functional, cell-based. To be noted: HCT-116, 48 h.
In experiment [4] the test system is A2780. Description: Antiproliferative activity against human A2780 cells incubated for 48 hrs by MTT assay. The settings on record: A2780, 48 h. Format: functional, cell-based.
Experiment [5] is described as follows: Antiproliferative activity against human A2780/CP70 cells incubated for 48 hrs by MTT assay. Format: functional, cell-based. The settings on record: A2780/CP70, 48 h.
Experiment [6] in a line: Antiproliferative activity against human HCA46 cells incubated for 48 hrs by MTT assay. The experiment is classed as functional, cell-based. The settings on record: HCA46, 48 h.
For experiment [7], the system named is HT-29. Description: Antiproliferative activity against human HT-29 cells incubated for 48 hrs by MTT assay. The experiment is classed as functional, cell-based. The settings on record: HT-29, 48 h.
A short description of experiment [8]: Inhibition of TEAD4 (unknown origin) to YAP (unknown origin) expressed in HEK293 cells incubated for 16 hrs by dual luciferase reporter assay. To be noted: Homo sapiens, HEK293, 16 h. Format: cell-based.
The nature of experiment [9]: Inhibition of GST-tagged human TEAD1 to human His6-tagged YAP2 protein-protein interaction incubated for 2 hrs by AlphaLisa method.
Experiment [10] is described as follows: Inhibition of His-tagged TEAD1 (unknown origin) to YAP (unknown origin) protein-protein interaction preincubated for 30 mins followed by biotinylated YAP addition and measured after 60 mins by TR-FRET assay. Also noted: species or system Homo sapiens.
A short description of experiment [11]: Inhibition of His-tagged TEAD2 (unknown origin) to YAP (unknown origin) protein-protein interaction preincubated for 30 mins followed by biotinylated YAP addition and measured after 60 mins by TR-FRET assay. The arrangement: species or system Homo sapiens.
Experiment [12] in a line: Inhibition of His-tagged TEAD3 (unknown origin) to YAP (unknown origin) protein-protein interaction preincubated for 30 mins followed by biotinylated YAP addition and measured after 60 mins by TR-FRET assay. The arrangement: species or system Homo sapiens.
Experiment [13] can be described thus: Inhibition of His-tagged TEAD4 (unknown origin) to YAP (unknown origin) protein-protein interaction preincubated for 30 mins followed by biotinylated YAP addition and measured after 60 mins by TR-FRET assay. The arrangement: species or system Homo sapiens.
Experiment [14] in a line: Inhibition of His-tagged TEAD1 (unknown origin) to TAZ (unknown origin) protein-protein interaction preincubated for 30 mins followed by biotinylated YAP addition and measured after 60 mins by TR-FRET assay. The arrangement: species or system Homo sapiens.
A short description of experiment [15]: Inhibition of His-tagged TEAD2 (unknown origin) to TAZ (unknown origin) protein-protein interaction preincubated for 30 mins followed by biotinylated YAP addition and measured after 60 mins by TR-FRET assay. Also noted: species or system Homo sapiens.
Experiment [16] in a line: Inhibition of His-tagged TEAD3 (unknown origin) to TAZ (unknown origin) protein-protein interaction preincubated for 30 mins followed by biotinylated YAP addition and measured after 60 mins by TR-FRET assay. The arrangement: species or system Homo sapiens.
A short description of experiment [17]: Inhibition of His-tagged TEAD4 (unknown origin) to TAZ (unknown origin) protein-protein interaction preincubated for 30 mins followed by biotinylated YAP addition and measured after 60 mins by TR-FRET assay. The arrangement: species or system Homo sapiens.
Experiment [18] deals with Transcriptional enhancer factor TEF-1-Lipid. Description: Inhibition of His-tagged TEAD1 (unknown origin) to lipid (unknown origin) interaction preincubated for 30 mins followed by biotinylated lipid addition and measured after 60 mins by TR-FRET assay. Also noted: species or system Homo sapiens.
Experiment [19] has as its system Transcriptional enhancer factor TEF-4-Lipid. Description: Inhibition of His-tagged TEAD2 (unknown origin) to lipid (unknown origin) interaction preincubated for 30 mins followed by biotinylated lipid addition and measured after 60 mins by TR-FRET assay. Also noted: species or system Homo sapiens.
Experiment [20] relates to Transcriptional enhancer factor TEF-5-Lipid. Description: Inhibition of His-tagged TEAD3 (unknown origin) to lipid (unknown origin) interaction preincubated for 30 mins followed by biotinylated lipid addition and measured after 60 mins by TR-FRET assay. The arrangement: species or system Homo sapiens.
For experiment [21], the system named is Transcriptional enhancer factor TEF-3-Lipid. Description: Inhibition of His-tagged TEAD4 (unknown origin) to lipid (unknown origin) interaction preincubated for 30 mins followed by biotinylated lipid addition and measured after 60 mins by TR-FRET assay. Also noted: species or system Homo sapiens.
Experiment [22] relates to OVCAR-8. Description: Antiproliferative activity against human OVCAR-8 cells by CellTiter-Glo luminescent cell viability assay. The experiment is classed as functional, cell-based.
The nature of experiment [23]: Antiproliferative activity against human HCC1576 cells by CellTiter-Glo luminescent cell viability assay. Format: functional, cell-based.
Experiment [24] in a line: Antiproliferative activity against human VMRC-LCD cells by CellTiter-Glo luminescent cell viability assay. Format: functional, cell-based.
Experiment [25] relates to OVCAR-8. Description: Antiproliferative activity against human OVCAR-8 cells assessed as minimum efficacy by CellTiter-Glo luminescent cell viability assay. Format: functional.
A short description of experiment [26]: Antiproliferative activity against human HCC1576 cells assessed as minimum efficacy by CellTiter-Glo luminescent cell viability assay. The experiment is classed as functional.
Experiment [27] can be described thus: Antiproliferative activity against human VMRC-LCD cells assessed as minimum efficacy by CellTiter-Glo luminescent cell viability assay. Format: functional.

For `COc1ccc(CCNC(=O)C2=CS(=O)(=O)c3ccccc32)cc1`, half-maximal inhibition in [1] (IC50) required 12700 nM. In experiment [2], the GI50 was 3200 nM.

Consider `C=Cc1c(C)/c2[nH]/c1=C\C1=NC(=C\C3=NC(=C\C4=NC(=C5C=CC(C(=O)OC)=C(C(=O)OC)[C@@]45C)\C=2)/C(C)=C3CCC(=O)OC)/C(CCC(=O)O)=C1C`, for which the IC50 in experiment [3] turned out to be 14700 nM; in experiment [4], 12400 nM; in experiment [5] it was 12300 nM; in [6] it was 5550 nM; in experiment [7] it was 3100 nM; in experiment [8], 8600 nM.

`COc1cc(/C=N/N(CCO)C2=NS(=O)(=O)c3ccccc32)ccc1O` displayed an IC50 in experiment [9] of 25400 nM.

In the case of `Cc1nccnc1-c1nn2c(=O)cc(-c3ccc(C4CCCCC4)cc3)[nH]c2c1C(=O)N1CC(CF)C1`, the IC50 in experiment [10] is 40 nM; in experiment [11], 10 nM; in experiment [12], 90 nM; in [13], 30 nM; in [14], 50 nM; in [15], 10 nM. For the same compound, the IC50 stood at 100 nM in [16]; 30 nM in [17]; 20 nM in [18]; 10 nM in [19]; 50 nM in experiment [20]; 10 nM in experiment [21]. Besides, the EC50 in experiment [22] is 170 nM; in experiment [23], 290 nM; in [24], 22000 nM. Also, the Emin in experiment [25] came out at 92%; in experiment [26], 81%; in experiment [27] it was 27%.
